Data set [1] concerns interferon (α). In words: Cytokine Induction in Human Cells: interferon (α) secreted by PBMCs, ELISA. The class given is cell-based. As to conditions: incubated 18 to 24 hours, lowest concentration found to induce interferon; for minimal effective concentration: PBMC. Further details: key to Lowest Effective Concentration (μM) Interferon: A “*” indicates that no induction was seen at any of the tested concentrations; generally the highest tested concentration was 10 or 30 μM. From the text: (§1) An in vitro human blood cell system is used to assess cytokine induction. Activity is based on the measurement of interferon and tumor necrosis factor (α) (IFN and TNF, respectively) secreted into culture media as described by Testerman et. al. In “Cytokine Induction by the Immunomodulators Imiquimod and S-27609”, Journal of Leukocyte Biology, 58, 365-372 (September, 1995).
(§2) Whole blood from healthy human donors is collected by venipuncture into EDTA vacutainer tubes. Peripheral blood mononuclear cells (PBMCs) are separated from whole blood by density gradient centrifugation using Histopaque®-1077. The PBMCs are washed twice with Hank's Balanced Salts Solution and then are suspended at 3-4×10^6 cells/mL in RPMI complete. The PBMC suspension is added to 48 well flat bottom sterile tissue culture plates (Costar, Cambridge, Mass. or Becton Dickinson Labware, Lincoln Park, N.J.) containing an equal volume of RPMI complete media containing test compound.
(§3) The compounds are solubilized in dimethyl sulfoxide (DMSO). The DMSO concentration should not exceed a final concentration of 1% for addition to the culture wells
(§4) The solution of test compound is added at 60 μM to the first well containing RPMI complete and serial 3 fold dilutions are made in the wells. The PBMC suspension is then added to the wells in an equal volume, bringing the test compound concentrations to the desired range (0.12 to 30 μM). The final concentration of PBMC suspension is 1.5-2×10^6 cells/mL. The plates are covered with sterile plastic lids, mixed gently and then incubated for 18 to 24 hours at 37° C. in a 5% carbon dioxide atmosphere.
(§5) Following incubation the plates are centrifuged for 5-10 minutes at 1000 rpm (˜200×g) at 4° C. The cell-free culture supernatant is removed with a sterile polypropylene pipet and transferred to sterile polypropylene tubes. Samples are maintained at −30 to −70° C. until analysis. The samples are analyzed for interferon (α) and for tumor necrosis factor (α) by ELISA.
Interferon (α) concentration is determined by ELISA using a Human Multi-Species kit from PBL Biomedical Laboratories, New Brunswick, N.J. Results are expressed in pg/mL.
(§6) The table below lists the lowest concentration found to induce interferon and the lowest concentration found to induce tumor necrosis factor for each compound.
(ELISA stands for enzyme-linked immunosorbent assay.)

Data set [2] deals with tumor necrosis factor (α). In words: Cytokine Induction in Human Cells: tumor necrosis factor (α) secreted by PBMCs, ELISA. Set-up: key to Lowest Effective Concentration (μM) Tumor Necrosis Factor: A “*” indicates that no induction was seen at any of the tested concentrations; generally the highest tested concentration was 10 or 30 μM. As to conditions: incubated 18 to 24 hours, lowest concentration found to induce tumor necrosis factor; for minimal effective concentration: PBMC. The class given is cell-based.
Excerpt: as §1, §2, §3, §4, §5
Tumor necrosis factor (α) (TNF)concentration is determined using ELISA kits available from Genzyme, Cambridge, Mass.; R&D Systems, Minneapolis, Minn.; or Pharmingen, San Diego, Calif. Results are expressed in pg/mL.
as §6

SMILES strings stand for the structures. Counter-ions that a name gives are not always drawn.

Regarding `Nc1nc2ccccc2c2c1ncn2CCOCc1cn(Cc2ccccc2)nn1` (as salt: hydrochloride) [Example 10, 1-{2-[(1-Benzyl-1H-1,2,3-triazol-4-yl)methoxy]ethyl}-1H-imidazo[4,5-c]quinoline-4-amine hydrochloride], the melting point (as a rule, the temperature of the solid-liquid transition) lay in the range of 209 to 211 °C.

Take `Nc1nc2ccccc2c2c1ncn2CCOCc1cccnc1` (as salt: hydrochloride) [Example 13, 1-[2-(Pyridin-3-ylmethoxy)ethyl]-1H-imidazo[4,5-c]quinolin-4-amine Hydrochloride]: the melting point is 229 to 231 °C.

In the case of `Nc1nc2ccccc2c2c1ncn2CCOCC#Cc1ncccn1` (as salt: trifluoroacetate) [Example 17, 1-(2-{[3-(Pyrimidin-2-yl)-2-propynyl]oxy}ethyl)-1H-imidazo[4,5-c]quinolin-4-amine trifluoroacetate], the melting point was 214 to 215 °C.

Turning to `Nc1nc2ccccc2c2c1ncn2CCOCC#Cc1ccncc1` (as salt: trifluoroacetate) [Example 18, 1-(2-{[3-(Pyrid-4-yl)-2-propynyl]oxy}ethyl)-1H-imidazo[4,5-c]quinolin-4-amine bis(trifluoroacetate)], the melting point was 135 °C (dec.).

In turn, `Nc1nc2ccccc2c2c1ncn2CCOCC#Cc1ccoc1` (as salt: trifluoroacetate) [Example 19, 1-(2-{[3-(Fur-3-yl)-2-propynyl]oxy}ethyl)-1H-imidazo[4,5-c]quinolin-4-amine trifluoroacetate] registered a melting point of 160 to 162 °C.

Take `Nc1nc2ccccc2c2c1ncn2CCOCC#Cc1cncc2ccccc12` [Example 1, 1-(2-{[3-(Isoquinolin-4-yl)-2-propynyl]oxy}ethyl)-1H-imidazo[4,5-c]quinolin-4-amine]: the minimal effective concentration (commonly the lowest level tested that produced the effect sought) in data set [1] came out at 0.12 µM; in data set [2] it was 3.33 µM.

Consider `Nc1nc2ccccc2c2c1ncn2CCOCCCc1cn[nH]c1` [Example 3, 1-{2-[3-(1H-Pyrazol-4-yl)propoxy]ethyl}-1H-imidazo[4,5-c]quinolin-4-amine], for which the minimal effective concentration in data set [1] is 0.04 µM. Also, the “Lowest Effective Concentration (μM) Tumor Necrosis Factor” value in data set [2] is “*”.

As to `Nc1nc2ccccc2c2c1ncn2CCOCCCc1cccnc1` [Example 8, 1-[2-(3-Pyridin-3-ylpropoxy)ethyl]-1H-imidazo[4,5-c]quinolin-4-amine Bis(trifluoroacetate)], the minimal effective concentration in data set [1] was determined as 0.04 µM; in data set [2], 0.12 µM.

With `Nc1nc2ccccc2c2c1ncn2CCOCCCc1cncnc1` [Example 9, 1-[2-(3-Pyrimidin-5-ylpropoxy)ethyl]-1H-imidazo[4,5-c]quinolin-4-amine], the minimal effective concentration stood at 0.12 µM in data set [1] and 3.33 µM in data set [2].

Take `Nc1nc2ccccc2c2c1ncn2CCOCc1cn(Cc2ccccc2)nn1` [Example 10, 1-{2-[(1-Benzyl-1H-1,2,3-triazol-4-yl)methoxy]ethyl}-1H-imidazo[4,5-c]quinoline-4-amine hydrochloride]: the minimal effective concentration in data set [1] and in data set [2] was 1.11 µM in each case.

Turning to `Nc1nc2ccccc2c2c1ncn2CCOCc1cc2ccccc2o1` [Example 12, 1-[2-(Benzo[b]furan-2-ylmethoxy)ethyl]-1H-imidazo[4,5-c]quinolin-4-amine], in data set [1], the minimal effective concentration came to 1.11 µM. Moreover, the “Lowest Effective Concentration (μM) Tumor Necrosis Factor” value in data set [2] is reported as “*”.

With `Nc1nc2ccccc2c2c1ncn2CCOCc1cccnc1` [Example 13, 1-[2-(Pyridin-3-ylmethoxy)ethyl]-1H-imidazo[4,5-c]quinolin-4-amine Hydrochloride], the minimal effective concentration in data set [1] was found to be 0.37 µM; in data set [2], 1.11 µM.

Take `Nc1nc2ccccc2c2c1ncn2CCOCC#Cc1ncccn1` [Example 17, 1-(2-{[3-(Pyrimidin-2-yl)-2-propynyl]oxy}ethyl)-1H-imidazo[4,5-c]quinolin-4-amine trifluoroacetate]: the minimal effective concentration in data set [1] and in data set [2] was 0.37 µM in each case.

With `Nc1nc2ccccc2c2c1ncn2CCOCC#Cc1ccncc1` [Example 18, 1-(2-{[3-(Pyrid-4-yl)-2-propynyl]oxy}ethyl)-1H-imidazo[4,5-c]quinolin-4-amine bis(trifluoroacetate)], the minimal effective concentration in data set [1] was 0.37 µM; in data set [2], 10 µM.

On to `Nc1nc2ccccc2c2c1ncn2CCOCC#Cc1ccoc1` [Example 19, 1-(2-{[3-(Fur-3-yl)-2-propynyl]oxy}ethyl)-1H-imidazo[4,5-c]quinolin-4-amine trifluoroacetate], for which the minimal effective concentration in data set [1] worked out at 0.12 µM; in data set [2] it was 3.33 µM.

Regarding `Nc1nc2ccccc2c2c1ncn2CCOCC#Cc1csc(C=O)c1` [Example 20, 4-{3-[2-(4-Amino-1H-imidazo[4,5-c]quinolin-1-yl)ethoxy]-propyn-1-yl}thiophen-2-ylcarboxaldehyde trifluoroacetate], the minimal effective concentration in data set [1] amounted to 0.12 µM; in data set [2], 3.33 µM.

For the compound `Nc1nc2ccccc2c2c1ncn2CCOCC#Cc1ccccn1` [Example 21, 1-(2-{[3-(Pyrid-2-yl)-2-propynyl]oxy}ethyl)-1H-imidazo[4,5-c]quinolin-4-amine trifluoroacetate], the minimal effective concentration in data set [1] worked out at 1.11 µM; in data set [2], 10 µM.

For `CC(Cn1cnc2c(N)nc3ccccc3c21)OCC1CCCO1` (stereo not drawn) [Example 22], the minimal effective concentration in data set [1] stood at 1.11 µM; in data set [2], 10 µM.

For the compound `CC(C)C(COc1ncccc1[N+](=O)[O-])n1cnc2c(N)nc3ccccc3c21` (stereo not drawn) [Example 23], the minimal effective concentration in data set [1] worked out at 1.11 µM. For the same compound, in data set [2], the “Lowest Effective Concentration (μM) Tumor Necrosis Factor” value is given as “*”.

On to `CC(C)C(COCc1csc2ccc(Cl)cc12)n1cnc2c(N)nc3ccccc3c21` (stereo not drawn) [Example 24], for which, in data set [1], the “Lowest Effective Concentration (μM) Interferon” value was “*”. In data set [2], the “Lowest Effective Concentration (μM) Tumor Necrosis Factor” value was “*”.

With `CC(Cn1cnc2c(N)nc3ccccc3c21)OCc1csc2ccc(Cl)cc12` (stereo not drawn) [Example 25], the minimal effective concentration in data set [1] stood at 10 µM. Also, the “Lowest Effective Concentration (μM) Tumor Necrosis Factor” value in data set [2] is given as “*”.

In the case of `CC(Cn1cnc2c(N)nc3ccccc3c21)Oc1ncccc1[N+](=O)[O-]` (stereo not drawn) [Example 26], the minimal effective concentration in data set [1] stood at 1.11 µM. For the same compound, the “Lowest Effective Concentration (μM) Tumor Necrosis Factor” value in data set [2] is recorded as “*”.

`CC(C)C(COc1ccccn1)n1cnc2c(N)nc3ccccc3c21` (stereo not drawn) [Example 27, 1-{2-Methyl-1-[(pyrid-2-yloxy)methyl]propyl}-1H-imidazo[4,5-c]quinoline-4-amine trifluoroacetate] returned a minimal effective concentration in data set [1] of 1.11 µM. In data set [2], the “Lowest Effective Concentration (μM) Tumor Necrosis Factor” value is given as “*”.

`CC(Cn1cnc2c(N)nc3ccccc3c21)Oc1ccc2[nH]c3ccccc3c2c1` (stereo not drawn) [Example 29, 1-[2-(9H-carbazol-3-yloxy)propyl]-1H-imidazo[4,5-c]quinolin-4-amine trifluoroacetate]: in data set [1], the minimal effective concentration worked out at 1.11 µM. The “Lowest Effective Concentration (μM) Tumor Necrosis Factor” value in data set [2] was “*”.

Take `CCCCc1nc2c(N)nc3ccccc3c2n1CCOCCCc1cccnc1` [Example 35, 2-Butyl-1-[2-(3-pyridin-3-ylpropoxy)ethyl]-1H-imidazo[4,5-c]quinoline-4-amine]: the minimal effective concentration stood at 0.01 µM in data set [1] and 0.12 µM in data set [2].

Values taken from patent publication US6664260B2, “Heterocyclic ether substituted imidazoquinolines” (3M Innovative Properties Company, priority 2000, dated 2003).
